# Experimental data as given in patent publication US7058616B1, “Method and system for predicting resistance of a disease to a therapeutic agent using a neural network” (Virco Bvba, priority 2000, dated 2006).
# Key:
# HIV-1 [1] = conditions: cited from earlier work
# HIV-1 [2] = test: MT-4 cell viral cytopathic effect protection assay, phenotypic susceptibility of patient recombinant virus; assay type: cell-based
# Description: Phenotypic susceptibility was determined using a MT-4 cell viral cytopathic effect protection assay. See, e.g., Kashiwase et al., Chemotherapy 45(1):48–55 (1999), expressly incorporated herein by reference; Larder et al., Antimicrob. Agents Chemother. 43(8):1961–1967 (1999).
structure (smiles),measurement,setting,value
"Cc1cn([C@H]2C[C@H](N=[N+]=[N-])[C@@H](CO)O2)c(=O)[nH]c1=O [AZT, 3′-azido-3′-deoxythymidine]",Effect of M184V mutation on AZT resistance,HIV-1 [1],reverses AZT resistance
same,Effect of 333D/E mutation,HIV-1 [1]; reverses the M184V effect,dual AZT/3TC resistance
CC(C)(C)NC(=O)[C@@H]1CN(Cc2cccnc2)CCN1C[C@@H](O)C[C@@H](Cc1ccccc1)C(=O)N[C@H]1c2ccccc2C[C@H]1O [Indinavir],actual phenotype resistance level,HIV-1 [2]; PI test sample 4,"R/R (if the value is greater than 10, it is considered to be ‘resistant’)"
same,actual phenotype resistance level,HIV-1 [2]; PI test sample 5,"R (if the value is greater than 10, it is considered to be ‘resistant’)"
same,actual phenotype resistance level,HIV-1 [2]; PI test sample 6,S/S (A fold resistance of less than or equal to 4 is considered to be ‘sensitive’)
same,actual phenotype resistance level,HIV-1 [2]; PI test sample 7,S/S (A fold resistance of less than or equal to 4 is considered to be ‘sensitive’)
same,actual phenotype resistance level,HIV-1 [2]; PI test sample 8,S/S (A fold resistance of less than or equal to 4 is considered to be ‘sensitive’)
same,actual phenotype resistance level,HIV-1 [2]; PI test sample 9,S/S (A fold resistance of less than or equal to 4 is considered to be ‘sensitive’)
same,actual phenotype resistance level,HIV-1 [2]; PI test sample 10,S/S (A fold resistance of less than or equal to 4 is considered to be ‘sensitive’)
same,actual phenotype resistance level,"HIV-1 [2]; PI test sample 11, listed as IDV",S (A fold resistance of less than or equal to 4 is considered to be ‘sensitive’)
same,actual phenotype resistance level,HIV-1 [2]; PI test sample 12,S/S (A fold resistance of less than or equal to 4 is considered to be ‘sensitive’)
same,actual phenotype resistance level,HIV-1 [2]; PI test sample 13,"R/R (if the value is greater than 10, it is considered to be ‘resistant’)"
same,actual phenotype resistance level,HIV-1 [2]; PI test sample 14,"R/R (if the value is greater than 10, it is considered to be ‘resistant’)"
same,actual phenotype resistance level,HIV-1 [2]; PI test sample 16,"R/R (if the value is greater than 10, it is considered to be ‘resistant’)"
same,actual phenotype resistance level,HIV-1 [2]; PI test sample 17,"R/R (if the value is greater than 10, it is considered to be ‘resistant’)"
same,actual phenotype resistance level,HIV-1 [2]; PI test sample 22,S (A fold resistance of less than or equal to 4 is considered to be ‘sensitive’)
same,actual phenotype resistance level,HIV-1 [2]; PI test sample 23,"R/R (if the value is greater than 10, it is considered to be ‘resistant’)"
same,actual phenotype resistance level,HIV-1 [2]; PI test sample 24,"R/R (if the value is greater than 10, it is considered to be ‘resistant’)"
same,actual phenotype resistance level,HIV-1 [2]; PI test sample 26,"R/R (if the value is greater than 10, it is considered to be ‘resistant’)"
same,actual phenotype resistance level,HIV-1 [2]; PI test sample 27,"R/R (if the value is greater than 10, it is considered to be ‘resistant’)"
same,actual phenotype resistance level,HIV-1 [2]; PI test sample 28,"R/R (if the value is greater than 10, it is considered to be ‘resistant’)"
same,actual phenotype resistance level,HIV-1 [2]; PI test sample 32,"R/R (if the value is greater than 10, it is considered to be ‘resistant’)"
same,actual phenotype resistance level,HIV-1 [2]; PI test sample 35,"R/R (if the value is greater than 10, it is considered to be ‘resistant’)"
same,actual phenotype resistance level,HIV-1 [2]; PI test sample 36,"R/R (if the value is greater than 10, it is considered to be ‘resistant’)"
same,actual phenotype resistance level,HIV-1 [2]; PI test sample 37,I/I (greater than 4 and less than 10 is considered to be ‘intermediate’)
same,actual phenotype resistance level,HIV-1 [2]; PI test sample 38,"R/R (if the value is greater than 10, it is considered to be ‘resistant’)"
same,actual phenotype resistance level,HIV-1 [2]; PI test sample 39,"R/R (if the value is greater than 10, it is considered to be ‘resistant’)"
same,actual phenotype resistance level,HIV-1 [2]; PI test sample 40,"R/R (if the value is greater than 10, it is considered to be ‘resistant’)"
same,actual phenotype resistance level,HIV-1 [2]; PI test sample 43,I/I (greater than 4 and less than 10 is considered to be ‘intermediate’)
same,actual phenotype resistance level,HIV-1 [2]; PI test sample 45,"R/R (if the value is greater than 10, it is considered to be ‘resistant’)"
same,actual phenotype resistance level,HIV-1 [2]; PI test sample 46,"R/R (if the value is greater than 10, it is considered to be ‘resistant’)"
same,actual phenotype resistance level,"HIV-1 [2]; PI test sample 47, listed as IDV","R/R (if the value is greater than 10, it is considered to be ‘resistant’)"
same,actual phenotype resistance level,HIV-1 [2]; PI test sample 48,"R/R (if the value is greater than 10, it is considered to be ‘resistant’)"
same,actual phenotype resistance level,HIV-1 [2]; PI test sample 49,"R/R (if the value is greater than 10, it is considered to be ‘resistant’)"
same,actual phenotype resistance level,HIV-1 [2]; PI test sample 51,"R/R (if the value is greater than 10, it is considered to be ‘resistant’)"
same,actual phenotype resistance level,HIV-1 [2]; PI test sample 53,"R/R (if the value is greater than 10, it is considered to be ‘resistant’)"
same,actual phenotype resistance level,HIV-1 [2]; Table 3 testing sample 1,"S/S (A fold resistance of less than or equal to 4 is considered to be “sensitive,”)"
same,actual phenotype resistance level,HIV-1 [2]; Table 3 testing sample 2,"S/S (A fold resistance of less than or equal to 4 is considered to be “sensitive,”)"
same,actual phenotype resistance level,HIV-1 [2]; Table 3 testing sample 5,"R/R (if the value is greater than 10, it is considered to be “resistant.”)"
same,actual phenotype resistance level,HIV-1 [2]; Table 3 testing sample 7,"S/S (A fold resistance of less than or equal to 4 is considered to be “sensitive,”)"
same,actual phenotype resistance level,HIV-1 [2]; Table 3 testing sample 9,"S/S (A fold resistance of less than or equal to 4 is considered to be “sensitive,”)"
same,actual phenotype resistance level,HIV-1 [2]; Table 3 testing sample 10,"S (A fold resistance of less than or equal to 4 is considered to be “sensitive,”)"
same,actual phenotype,"HIV-1 [2]; Table 13/14 sample 2: 10I,46I,48V,77I,82A,90M, 10E,58E,63T",S (A fold resistance of less than or equal to 4 is considered to be ‘sensitive’)
same,actual phenotype,"HIV-1 [2]; Table 13/14 sample 8: 10I,54V,71V,73S,84V,90M, 33M,63P",I (greater than 4 and less than 10 is considered to be ‘intermediate’)
same,actual phenotype,"HIV-1 [2]; Table 13/14 sample 13: 10I,36I,71T,90M, 63P,73T",I (greater than 4 and less than 10 is considered to be ‘intermediate’)
same,actual phenotype,"HIV-1 [2]; Table 13/14 sample 14: 10I,46I,71T,77I,90M, 57K,63P,93L",S (A fold resistance of less than or equal to 4 is considered to be ‘sensitive’)
same,actual phenotype,"HIV-1 [2]; Table 13/14 sample 17: 46I,77I,90M, 10F,20L,63P",I (greater than 4 and less than 10 is considered to be ‘intermediate’)
same,actual phenotype,"HIV-1 [2]; Table 13/14 sample 18: 36I,71T,90M, 63P,93L",S (A fold resistance of less than or equal to 4 is considered to be ‘sensitive’)
same,actual phenotype,"HIV-1 [2]; Table 13/14 sample 20: 77I,88S, 13V, 63P, 93L",S (A fold resistance of less than or equal to 4 is considered to be ‘sensitive’)
same,actual phenotype,"HIV-1 [2]; Table 13/14 sample 21: 10I,77I,84V,90M, 63Q",I (greater than 4 and less than 10 is considered to be ‘intermediate’)
same,actual phenotype,"HIV-1 [2]; Table 13/14 sample 22: 10I,20R,36I,71V,73S,84V,90M, 13V,63P","R (if the value is greater than 10, it is considered to be ‘resistant’)"
Nc1ccn([C@H]2CC[C@@H](CO)O2)c(=O)n1 [DDC],actual phenotype resistance level,HIV-1 [2]; Table 3 testing sample 1,"S/S (A fold resistance of less than or equal to 4 is considered to be “sensitive,”)"
same,actual phenotype resistance level,HIV-1 [2]; Table 3 testing sample 2,"S/S (A fold resistance of less than or equal to 4 is considered to be “sensitive,”)"
same,actual phenotype resistance level,HIV-1 [2]; Table 3 testing sample 3,"S/S (A fold resistance of less than or equal to 4 is considered to be “sensitive,”)"
same,actual phenotype resistance level,HIV-1 [2]; Table 3 testing sample 4,"S/S (A fold resistance of less than or equal to 4 is considered to be “sensitive,”)"
same,actual phenotype resistance level,HIV-1 [2]; Table 3 testing sample 5,"S/S (A fold resistance of less than or equal to 4 is considered to be “sensitive,”)"
same,actual phenotype resistance level,HIV-1 [2]; Table 3 testing sample 6,"I (greater than 4 and less than 10 is considered to be “intermediate,”)"
same,actual phenotype resistance level,HIV-1 [2]; Table 3 testing sample 7,"S/S (A fold resistance of less than or equal to 4 is considered to be “sensitive,”)"
same,actual phenotype resistance level,HIV-1 [2]; Table 3 testing sample 8,"S (A fold resistance of less than or equal to 4 is considered to be “sensitive,”)"
same,actual phenotype resistance level,HIV-1 [2]; Table 3 testing sample 9,"S/S (A fold resistance of less than or equal to 4 is considered to be “sensitive,”)"
same,actual phenotype resistance level,HIV-1 [2]; Table 3 testing sample 10,"S/S (A fold resistance of less than or equal to 4 is considered to be “sensitive,”)"
Nc1nc(NC2CC2)c2ncn([C@H]3C=C[C@@H](CO)C3)c2n1 [1592 U89],actual phenotype resistance level,HIV-1 [2]; Table 3 testing sample 1,"S/S (A fold resistance of less than or equal to 4 is considered to be “sensitive,”)"
same,actual phenotype resistance level,HIV-1 [2]; Table 3 testing sample 2,"S (A fold resistance of less than or equal to 4 is considered to be “sensitive,”)"
same,actual phenotype resistance level,HIV-1 [2]; Table 3 testing sample 3,"S/S (A fold resistance of less than or equal to 4 is considered to be “sensitive,”)"
same,actual phenotype resistance level,HIV-1 [2]; Table 3 testing sample 4,"S/S (A fold resistance of less than or equal to 4 is considered to be “sensitive,”)"
same,actual phenotype resistance level,HIV-1 [2]; Table 3 testing sample 5,"S/S (A fold resistance of less than or equal to 4 is considered to be “sensitive,”)"
same,actual phenotype resistance level,HIV-1 [2]; Table 3 testing sample 6,"I (greater than 4 and less than 10 is considered to be “intermediate,”)"
same,actual phenotype resistance level,HIV-1 [2]; Table 3 testing sample 7,"S/S (A fold resistance of less than or equal to 4 is considered to be “sensitive,”)"
same,actual phenotype resistance level,HIV-1 [2]; Table 3 testing sample 8,"I (greater than 4 and less than 10 is considered to be “intermediate,”)"
same,actual phenotype resistance level,HIV-1 [2]; Table 3 testing sample 9,"S/S (A fold resistance of less than or equal to 4 is considered to be “sensitive,”)"
same,actual phenotype resistance level,HIV-1 [2]; Table 3 testing sample 10,"S/S (A fold resistance of less than or equal to 4 is considered to be “sensitive,”)"
